Data published in ChEMBL document CHEMBL2016493, “Design, synthesis, synergistic antimicrobial activity and cytotoxicity of 4-aryl substituted 3,4-dihydropyrimidinones of curcumin” (Bioorg Med Chem Lett, 2012).
Activity calls are given as the source filed them. The calls are words filed in the database; no cut-off is given here.

Experiments:
[1] = system: Burkholderia pseudomallei; assay: Antibacterial activity against Burkholderia pseudomallei NTCC 10274 at 20 uM/ml after 24 hrs by kirby-bauer method; format: functional; settings: for zone of inhibition at 20 µM: NTCC 10274, 24 h, read-out: IZ
Escherichia coli [2] = assay: Antibacterial activity against Escherichia coli ATCC 35218 at 160 uM/ml after 24 hrs by kirby-bauer method; format: functional; settings: ATCC 35218, 24 h, read-out: IZ
Pseudomonas aeruginosa [3] = assay: Antibacterial activity against Pseudomonas aeruginosa ATCC 15499 at 80 uM/ml after 24 hrs by kirby-bauer method; format: functional; settings: ATCC 15499, 24 h, read-out: IZ
[4] = system: Burkholderia pseudomallei; assay: Antibacterial activity against Burkholderia pseudomallei NTCC 10274 at 160 uM/ml after 24 hrs by kirby-bauer method; format: functional; settings: NTCC 10274, 24 h, read-out: IZ
[5] = system: Burkholderia pseudomallei; assay: Antibacterial activity against Burkholderia pseudomallei NTCC 10274 at 80 uM/ml after 24 hrs by kirby-bauer method; format: functional; settings: NTCC 10274, 24 h, read-out: IZ
Salmonella typhimurium [6] = assay: Antibacterial activity against Salmonella typhimurium ATCC 23564 at 80 uM/ml after 24 hrs by kirby-bauer method; format: functional, Salmonella enterica subsp. enterica serovar Typhimurium
Pseudomonas aeruginosa [7] = assay: Antibacterial activity against Pseudomonas aeruginosa ATCC 15499 at 20 uM/ml after 24 hrs by kirby-bauer method; format: functional; settings: ATCC 15499, 24 h, read-out: IZ
Salmonella typhimurium [8] = assay: Antibacterial activity against Salmonella typhimurium ATCC 23564 at 20 uM/ml after 24 hrs by kirby-bauer method; format: functional, Salmonella enterica subsp. enterica serovar Typhimurium
Escherichia coli [9] = assay: Antibacterial activity against Escherichia coli ATCC 35218 at 80 uM/ml after 24 hrs by kirby-bauer method; format: functional; settings: ATCC 35218, 24 h, read-out: IZ
Escherichia coli [10] = assay: Antibacterial activity against Escherichia coli ATCC 35218 at 40 uM/ml after 24 hrs by kirby-bauer method; format: functional; settings: ATCC 35218, 24 h, read-out: IZ
Escherichia coli [11] = assay: Antibacterial activity against Escherichia coli ATCC 35218 at 20 uM/ml after 24 hrs by kirby-bauer method; format: functional; settings: ATCC 35218, 24 h, read-out: IZ
[12] = system: Burkholderia pseudomallei; assay: Antibacterial activity against Burkholderia pseudomallei NTCC 10274 at 40 uM/ml after 24 hrs by kirby-bauer method; format: functional; settings: for zone of inhibition at 40 µM: NTCC 10274, 24 h, read-out: IZ
Staphylococcus aureus [13] = assay: Antibacterial activity against Staphylococcus aureus ATCC 11632 at 40 uM/ml after 24 hrs by kirby-bauer method; format: functional
Pseudomonas aeruginosa [14] = assay: Antibacterial activity against Pseudomonas aeruginosa ATCC 15499 at 160 uM/ml after 24 hrs by kirby-bauer method; format: functional; settings: ATCC 15499, 24 h, read-out: IZ
Pseudomonas aeruginosa [15] = assay: Antibacterial activity against Pseudomonas aeruginosa ATCC 15499 at 40 uM/ml after 24 hrs by kirby-bauer method; format: functional; settings: ATCC 15499, 24 h, read-out: IZ
Staphylococcus aureus [16] = assay: Antibacterial activity against Staphylococcus aureus ATCC 11632 at 80 uM/ml after 24 hrs by kirby-bauer method; format: functional; settings: ATCC 11632, 24 h, read-out: IZ
Salmonella typhimurium [17] = assay: Antibacterial activity against Salmonella typhimurium ATCC 23564 at 160 uM/ml after 24 hrs by kirby-bauer method; format: functional, Salmonella enterica subsp. enterica serovar Typhimurium; settings: for zone of inhibition at 160 µM: Salmonella enterica, ATCC 23564, 24 h, read-out: IZ; for inhibition zone (IZ): Salmonella enterica subsp. enterica serovar Typhimurium
Salmonella typhimurium [18] = assay: Antibacterial activity against Salmonella typhimurium ATCC 23564 at 40 uM/ml after 24 hrs by kirby-bauer method; format: functional, Salmonella enterica subsp. enterica serovar Typhimurium
Staphylococcus aureus [19] = assay: Antibacterial activity against Staphylococcus aureus ATCC 11632 at 20 uM/ml after 24 hrs by kirby-bauer method; format: functional
Staphylococcus aureus [20] = assay: Antibacterial activity against Staphylococcus aureus ATCC 11632 at 160 uM/ml after 24 hrs by kirby-bauer method; format: functional; settings: for zone of inhibition at 160 µM: ATCC 11632, 24 h, read-out: IZ
QG-56 = assay: Cytotoxicity against human QG56 cells after 48 hrs by MTT assay; format: functional, cell-based
Aspergillus niger [21] = assay: Antifungal activity against Aspergillus niger MTCC 1108 at 160 uM/ml after 48 hrs by paper disc diffusion method; format: functional; settings: for zone of inhibition at 160 µM: MTCC 1108, 48 h, read-out: IZ
Trichoderma viride [22] = assay: Antifungal activity against Trichoderma viride MTCC 1107 at 20 uM/ml after 48 hrs by paper disc diffusion method; format: functional; settings: for zone of inhibition at 20 µM: MTCC 1107, 48 h, read-out: IZ
Curvularia lunata [23] = assay: Antifungal activity against Curvularia lunata MTCC 581 at 80 uM/ml after 48 hrs by paper disc diffusion method; format: functional; settings: MTCC 581, 48 h, read-out: IZ
Curvularia lunata [24] = assay: Antifungal activity against Curvularia lunata MTCC 581 at 40 uM/ml after 48 hrs by paper disc diffusion method; format: functional; settings: for zone of inhibition at 40 µM: MTCC 581, 48 h, read-out: IZ
Curvularia lunata [25] = assay: Antifungal activity against Curvularia lunata MTCC 581 at 160 uM/ml after 48 hrs by paper disc diffusion method; format: functional; settings: MTCC 581, 48 h, read-out: IZ
Trichoderma viride [26] = assay: Antifungal activity against Trichoderma viride MTCC 1107 at 160 uM/ml after 48 hrs by paper disc diffusion method; format: functional; settings: MTCC 1107, 48 h, read-out: IZ
Trichoderma viride [27] = assay: Antifungal activity against Trichoderma viride MTCC 1107 at 80 uM/ml after 48 hrs by paper disc diffusion method; format: functional; settings: MTCC 1107, 48 h, read-out: IZ
Aspergillus flavus [28] = assay: Antifungal activity against Aspergillus flavus MTCC 1021 at 160 uM/ml after 48 hrs by paper disc diffusion method; format: functional; settings: for zone of inhibition at 160 µM: MTCC 1021, 48 h, read-out: IZ
Curvularia lunata [29] = assay: Antifungal activity against Curvularia lunata MTCC 581 at 20 uM/ml after 48 hrs by paper disc diffusion method; format: functional; settings: for zone of inhibition at 20 µM: MTCC 581, 48 h, read-out: IZ
Trichoderma viride [30] = assay: Antifungal activity against Trichoderma viride MTCC 1107 at 40 uM/ml after 48 hrs by paper disc diffusion method; format: functional; settings: for zone of inhibition: MTCC 1107, 48 h, read-out: IZ
Aspergillus flavus [31] = assay: Antifungal activity against Aspergillus flavus MTCC 1021 at 20 uM/ml after 48 hrs by paper disc diffusion method; format: functional
Aspergillus niger [32] = assay: Antifungal activity against Aspergillus niger MTCC 1108 at 80 uM/ml after 48 hrs by paper disc diffusion method; format: functional; settings: MTCC 1108, 48 h, read-out: IZ
Aspergillus flavus [33] = assay: Antifungal activity against Aspergillus flavus MTCC 1021 at 40 uM/ml after 48 hrs by paper disc diffusion method; format: functional
Aspergillus flavus [34] = assay: Antifungal activity against Aspergillus flavus MTCC 1021 at 80 uM/ml after 48 hrs by paper disc diffusion method; format: functional
Aspergillus niger [35] = assay: Antifungal activity against Aspergillus niger MTCC 1108 at 40 uM/ml after 48 hrs by paper disc diffusion method; format: functional
Aspergillus niger [36] = assay: Antifungal activity against Aspergillus niger MTCC 1108 at 20 uM/ml after 48 hrs by paper disc diffusion method; format: functional
[37] = Salmonella enterica, ATCC 23564, 24 h, read-out: IZ
[38] = Salmonella enterica subsp. enterica serovar Typhimurium

Compound	zone of inhibition at 20 µM [1] [mm]	zone of inhibition at 160 µM (Escherichia coli [2]) [mm]	zone of inhibition at 80 µM (Pseudomonas aeruginosa [3]) [mm]	zone of inhibition at 160 µM [4] [mm]	zone of inhibition at 80 µM [5] [mm]	zone of inhibition at 20 µM (Pseudomonas aeruginosa [7]) [mm]	zone of inhibition at 80 µM (Escherichia coli [9]) [mm]	zone of inhibition at 40 µM (Escherichia coli [10]) [mm]	zone of inhibition at 20 µM (Escherichia coli [11]) [mm]	zone of inhibition at 40 µM [12] [mm]	zone of inhibition at 160 µM (Pseudomonas aeruginosa [14]) [mm]	zone of inhibition at 40 µM (Pseudomonas aeruginosa [15]) [mm]	zone of inhibition at 80 µM (Staphylococcus aureus [16]) [mm]	IC50 (QG-56) [uM/ml]	IC50 (HCT-116) [uM/ml]	zone of inhibition at 80 µM (Curvularia lunata [23]) [mm]	zone of inhibition at 160 µM (Curvularia lunata [25]) [mm]	zone of inhibition at 160 µM (Trichoderma viride [26]) [mm]	zone of inhibition at 80 µM (Trichoderma viride [27]) [mm]	IC50 (HepG2) [uM/ml]	other results
CC1(C)S[C@@H]2[C@H](NC(=O)[C@H](N)c3ccccc3)C(=O)N2[C@H]1C(=O)O [AMPICILLIN]	38	34	36	46	41	31	32	30	30	39	39	34	30	–	–	–	–	–	–	–	zone of inhibition at 80 µM (Salmonella typhimurium [6]; [37]): 45 mm; zone of inhibition at 20 µM (Salmonella typhimurium [8]; [37]): 37 mm; zone of inhibition at 40 µM (Staphylococcus aureus [13]; ATCC 11632, 24 h, read-out: IZ): 29 mm; zone of inhibition at 160 µM (Salmonella typhimurium [17]): 51 mm; zone of inhibition at 40 µM (Salmonella typhimurium [18]; [37]): 44 mm; zone of inhibition at 20 µM (Staphylococcus aureus [19]; ATCC 11632, 24 h, read-out: IZ): 28 mm; zone of inhibition at 160 µM (Staphylococcus aureus [20]): 37 mm
COc1cc(/C=C/C(=O)C2=C(/C=C/c3ccc(O)c(OC)c3)NC(=O)NC2c2ccc([N+](=O)[O-])cc2)ccc1O (centres undefined)	–	18	18	12	10	9	16	15	12	–	19	14	10	100	50	9	11	21	21	100	inhibition zone (IZ) [1]: inactive; inhibition zone (IZ) (Aspergillus niger [21]): inactive; zone of inhibition at 20 µM (Trichoderma viride [22]): 17 mm; inhibition zone (IZ) (Curvularia lunata [24]): inactive; inhibition zone (IZ) (Salmonella typhimurium [6]; [38]): inactive; inhibition zone (IZ) (Salmonella typhimurium [8]; [38]): inactive; inhibition zone (IZ) [12]: inactive; inhibition zone (IZ) (Staphylococcus aureus [13]): inactive; zone of inhibition at 160 µM (Salmonella typhimurium [17]): 10 mm; inhibition zone (IZ) (Salmonella typhimurium [18]; [38]): inactive; inhibition zone (IZ) (Staphylococcus aureus [19]): inactive; inhibition zone (IZ) (Aspergillus flavus [28]): inactive; inhibition zone (IZ) (Curvularia lunata [29]): inactive; zone of inhibition at 160 µM (Staphylococcus aureus [20]): 11 mm; zone of inhibition (Trichoderma viride [30]): 19 mm
COc1cc(/C=C/C(=O)C2=C(/C=C/c3ccc(O)c(OC)c3)NC(=S)NC2c2ccccc2)ccc1O (centres undefined)	11	21	17	18	16	12	18	14	12	13	18	14	–	50	100	23	26	24	21	50	zone of inhibition at 160 µM (Aspergillus niger [21]): 16 mm; inhibition zone (IZ) (Aspergillus flavus [31]): inactive; zone of inhibition at 80 µM (Aspergillus niger [32]): 14 mm; zone of inhibition at 20 µM (Trichoderma viride [22]): 18 mm; zone of inhibition at 40 µM (Curvularia lunata [24]): 21 mm; inhibition zone (IZ) (Aspergillus flavus [33]): inactive; inhibition zone (IZ) (Aspergillus flavus [34]): inactive; inhibition zone (IZ) (Aspergillus niger [35]): inactive; inhibition zone (IZ) (Aspergillus niger [36]): inactive; inhibition zone (IZ) (Salmonella typhimurium [17]): inactive; zone of inhibition at 160 µM (Aspergillus flavus [28]): 9 mm; zone of inhibition at 20 µM (Curvularia lunata [29]): 18 mm; inhibition zone (IZ) (Staphylococcus aureus [20]): inactive; zone of inhibition (Trichoderma viride [30]): 21 mm
COc1cc(/C=C/C(=O)C2=C(/C=C/c3ccc(O)c(OC)c3)NC(=O)NC2c2ccccc2O)ccc1O (centres undefined)	–	22	21	19	13	18	19	18	15	11	24	19	–	100	100	21	23	11	9	100	inhibition zone (IZ) [1]: inactive; zone of inhibition at 160 µM (Aspergillus niger [21]): 13 mm; inhibition zone (IZ) (Aspergillus flavus [31]): inactive; zone of inhibition at 80 µM (Aspergillus niger [32]): 11 mm; inhibition zone (IZ) (Trichoderma viride [22]): inactive; zone of inhibition at 40 µM (Curvularia lunata [24]): 20 mm; inhibition zone (IZ) (Aspergillus flavus [33]): inactive; inhibition zone (IZ) (Aspergillus flavus [34]): inactive; zone of inhibition at 40 µM (Aspergillus niger [35]; MTCC 1108, 48 h, read-out: IZ): 9 mm; inhibition zone (IZ) (Aspergillus niger [36]): inactive; inhibition zone (IZ) (Salmonella typhimurium [17]): inactive; zone of inhibition at 160 µM (Aspergillus flavus [28]): 9 mm; zone of inhibition at 20 µM (Curvularia lunata [29]): 17 mm; inhibition zone (IZ) (Staphylococcus aureus [20]): inactive; inhibition zone (IZ) (Trichoderma viride [30]): inactive
